# Data published in US20100016221A1, “METHOD OF DEGRADING PROTEIN BY CHAPERONE-MEDIATED AUTOPHAGY” (RIKEN, priority 2008, published 2010).
# Experiments:
# [1] = molecular target: T1, tNhtt-60Q (Homo sapiens, UniProt P42858, INS38QQQQQQQQQQQQQQQQQQQQQQQQQQQQQQQQQQQQQQQ); assay: Dot blot of purified intact lysosomes from Neuro2a cells co-transfected with tNhtt-60Q; assay type: cell-based; details: 16 hours
# T1 construct: N-terminal fragment of human huntington exon 1 (tNhtt) encoding 60 CAG repeats; expressed in transfected cells; host or cells: Neuro2a cells, transient co-transfection
# T1 sequence (P42858 with tags, fused parts or gaps with the stated changes): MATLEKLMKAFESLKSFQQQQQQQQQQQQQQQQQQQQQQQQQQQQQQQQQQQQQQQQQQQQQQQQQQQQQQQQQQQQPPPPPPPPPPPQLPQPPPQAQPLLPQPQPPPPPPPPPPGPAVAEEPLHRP
# Experimental: We used a modification of the previously described method for the purification of lysosomes from CHO cells (E. A. Madden, B. Storrie, Anal. Biochem. 163, 2 (1987), E. A. Madden, J. B. Wirt, B. Storrie, Arch. Biochem. Biophys. 257, 1 (1987)). Neuro2a cells grown in 10 cm dishes were co-transfected with tNhtt-60Q and tested constructs, and after 16 hrs of incubation, cells were washed with ice cold PBS and homogenized by ten strokes. The homogenate was centrifuged at 1300 g for 5 min. The supernatant was decanted and placed on ice. The nuclear fraction was resuspended in 0.25 M sucrose and centrifuged at 1300 g for 5 min. This step was repeated 3 times and the supernatants from each wash were pooled to give a total post-nuclear supernatant (PNS). All the solutions used for the preparation of the discontinuous gradient were in 0.25 M sucrose. Gradients were prepared in cellulose nitrate tubes for Beckman SW40 rotor. Two ml of 35% Histodenz (Sigma) was overlaid with 2 ml of 17% Histodenz followed by 5 ml of 6% Percoll (Sigma). The tubes were then filled with 4.8 ml of PNS. […]
# Cells were washed twice with ice-cold PBS, scraped, and resuspended in lysis buffer (0.5% Triton X-100 in PBS, 0.5 mM phenylmethylsulfonyl fluoride, Complete protease inhibitor mixture (Roche Applied Sciences)). […] Immunoreactive proteins were detected with enhanced chemiluminescence reagents (Amersham Biosciences). […]
# [2] = tested on: 150Q Neuro2a cells; assay: Cell death assay (propidium iodide uptake) in 150Q Neuro2a cells; assay type: cell-based, mouse; details: after 60 hours of induction
# Experimental: (§1) Mouse neuroblastoma (Neuro2a) cells were maintained in Dulbecco's modified Eagle's medium (Sigma) supplemented with 10% heat-inactivated fetal bovine serum (Sigma), 100 U/ml penicillin and 100 μg/ml streptomycin (Invitrogen) at 37° C. in an atmosphere containing 5% CO2 and 95% air. Establishment of stable Neuro2a cell lines with the ecdysone-inducible mammalian expression system (Invitrogen), that express tNhtt-EGFP-16Q (16Q Neuro2a cells), tNhtt-EGFP-150Q (150Q Neuro2a cells) and tNhtt-EGFP-150Q-nls (150Q-nls Neuro2a cells) has been described earlier (T. Nagai et al., supra, H. Doi et al., supra, E. A. Zemskov et al., J Neurochem. 87, 2 (2003)). Neuro2a cells were differentiated with 5mM dbcAMP (N^6, 2′-O-dibutyryladenosine-3′,5′-cyclic monophosphate sodium salt) (Nacalai Tesque) and induced to express tNhtt-polyQ with 2 μM ponasterone A (ponA; Invitrogen) for indicated times. Neuro2a/FRT/TR cell line was generated as described in the protocol for Flp-in/T-Rex system (Invitrogen). […]
# (§2) For quantification of cell death, 5 μg/ml each of Hoechst 33342 and propidium iodide (PI) were added to differentiated and induced Neuro2a cells transiently transfected with either of the tested constructs (FIG. 6A). After 10 minutes at 37° C., the number of cells with PI uptake over the total number of cells was calculated by ArrayScan.
# [3] = tested on: polyQ inclusions in 150Q-nls Neuro2a cells (tNhtt-EGFP-150Q-nls); assay: ArrayScan quantification of polyQ inclusion formation in inducible 150Q-nls Neuro2a cells; assay type: cell-based, mouse; details: 150Q-nls Neuro2a cells, constructs without mRFP, 48 hours after induction
# Experimental: as §1, with “(Invitrogen). Neuro2a tNhtt-62Q-kikGR cell line was generated by transfecting Neuro2a/FRT/TR cells with the pFRT-HD62-KikGR and pOG44 (Invitrogen) constructs using Lipofectamine 2000 reagent and selected with 200 μg/ml hygromycin. The expression of the pFRT-tNhtt-62Q-KikGR was induced by 18 doxycycline treatment of the cells. For the photo-induced kikGR cleavage, cells were exposed to ˜400 nm wavelength for 5 minutes.” for “(Invitrogen).”
# (§3) For the quantification of the inclusions, cells were grown in 24-well plates for indicated periods, fixed in 4% paraformaldehyde, washed and incubated with Hoechst 33258 at 1/1000 dilution in PBS. Cells were analyzed by ArrayScan® V^TI High Content Screening (HSC) Reader (Cellomics) using Target Activation BioApplication (TABA). TABA analyzes images acquired by a HSC Reader and provides measurements of the intracellular fluorescence intensity and localization on a cell-by-cell basis.
# In each well, at least 10000 cells were counted and quantified for the presence of the inclusions. Nuclei stained with Hoechst 33285 provided the autofocus target and their count gave the exact number of the quantified cells. The screening itself consisted of two scans using Hoechst, FITC (for GFP) and TRITC (for RFP) fluorescence. Firstly, number of inclusions in transfected cells was calculated when fluorescent spots at size of at least 5 pixels (magnification 20× for cytoplasmic and 40× for nuclear aggregates) with average GFP intensity more than 1500 in the RFP background were counted. […] The percentage of the cells with aggregates was then calculated. When the constructs without mRFP were used for transfection, the procedure was same, except the RFP intensity was not measured. […] Data was generated from the quantification of more than 250,000 cells in each experimental set-up.
# [4] = tested on: 150Q-nls Neuro2a cells; assay: Cell death assay (propidium iodide uptake) in 150Q-nls Neuro2a cells; assay type: cell-based, mouse; details: after 48 hours of induction
# Experimental: as §1, §2
# [5] = tested on: polyQ inclusions in 150Q Neuro2a cells (tNhtt-EGFP-150Q); assay: ArrayScan quantification of polyQ inclusion formation in inducible 150Q Neuro2a cells; assay type: cell-based, mouse; details: constructs without mRFP, induced and differentiated for 24 hours
# Experimental: Mouse neuroblastoma (Neuro2a) cells were maintained in Dulbecco's modified Eagle's medium (Sigma) supplemented with 10% heat-inactivated fetal bovine serum (Sigma), 100 U/ml penicillin and 100 μg/ml streptomycin (Invitrogen) at 37° C. in an atmosphere containing 5% CO2 and 95% air. Establishment of stable Neuro2a cell lines with the ecdysone-inducible mammalian expression system (Invitrogen), that express tNhtt-EGFP-16Q (16Q Neuro2a cells), tNhtt-EGFP-150Q (150Q Neuro2a cells) and tNhtt-EGFP-150Q-nls (150Q-nls Neuro2a cells) has been described earlier (T. Nagai et al., supra, H. Doi et al., supra, E. A. Zemskov et al., J Neurochem. 87, 2 (2003)). Neuro2a cells were differentiated with 5mM dbcAMP (N^6, 2′-O-dibutyryladenosine-3′,5′-cyclic monophosphate sodium salt) (Nacalai Tesque) and induced to express tNhtt-polyQ with 2 μM ponasterone A (ponA; Invitrogen) for indicated times. Neuro2a/FRT/TR cell line was generated as described in the protocol for Flp-in/T-Rex system (Invitrogen). Neuro2a tNhtt-62Q-kikGR cell line was generated by transfecting Neuro2a/FRT/TR cells with the pFRT-HD62-KikGR and pOG44 (Invitrogen) constructs using Lipofectamine 2000 reagent and selected with 200 μg/ml hygromycin. The expression of the pFRT-tNhtt-62Q-KikGR was induced by 18 doxycycline treatment of the cells. For the photo-induced kikGR cleavage, cells were exposed to ˜400 nm wavelength for 5 minutes. Rat pheochromocytoma (PC12) cells were grown in the same conditions as Neuro2a cells, except for the serum composition of 5% of fetal bovine and 10% of horse serum (Sigma). All transient transfections were performed with Lipofectamine 2000 (Invitrogen) according to the manufacturer's instruction.
# as §3
# In each well, at least 10000 cells were counted and quantified for the presence of the inclusions. Nuclei stained with Hoechst 33285 provided the autofocus target and their count gave the exact number of the quantified cells. The screening itself consisted of two scans using Hoechst, FITC (for GFP) and TRITC (for RFP) fluorescence. Firstly, number of inclusions in transfected cells was calculated when fluorescent spots at size of at least 5 pixels (magnification 20× for cytoplasmic and 40× for nuclear aggregates) with average GFP intensity more than 1500 in the RFP background were counted. Secondly, nuclei were defined as the objects of interest and the cells with average intensity more than 50 within 3 pixels from the nucleus were selected for the analysis. The percentage of the cells with aggregates was then calculated. When the constructs without mRFP were used for transfection, the procedure was same, except the RFP intensity was not measured. Scanning was performed with triplicate or quadruplicate in each experimental condition. Data was generated from the quantification of more than 250,000 cells in each experimental set-up.
substance,measurement,setting,value
HSC70bm-(QBP1)2 (MARVKKDQAEPLHRKFERQPPGSNWKWWPGIFDSNWKWWPGIFD) [HQ],translocation of expanded polyQ toward the lysosomes,[1],efficient translocation
same,decrease of the percentage of PI-positive cells,[2],37.4%
same,reduction of aggregation compared to control counterparts (S and HS),[3],45.2%
same,decrease of the percentage of PI-positive cells,[4],47.2%
same,decrease of aggregation compared to control counterparts (S and HS),[5],58.5%
